{
  "source": "ChEMBL document CHEMBL4196212",
  "about": "“Targeting Cytochrome P450 (CYP) 1B1 Enzyme with Four Series of A-Ring Substituted Estrane Derivatives: Design, Synthesis, Inhibitory Activity, and Selectivity” (J Med Chem, 2018)",
  "key": {"[1]": {"biological_target": "T1, Cytochrome P450 1A1 (Homo sapiens, UniProt P04798)", "T1 sequence (P04798 whole entry)": "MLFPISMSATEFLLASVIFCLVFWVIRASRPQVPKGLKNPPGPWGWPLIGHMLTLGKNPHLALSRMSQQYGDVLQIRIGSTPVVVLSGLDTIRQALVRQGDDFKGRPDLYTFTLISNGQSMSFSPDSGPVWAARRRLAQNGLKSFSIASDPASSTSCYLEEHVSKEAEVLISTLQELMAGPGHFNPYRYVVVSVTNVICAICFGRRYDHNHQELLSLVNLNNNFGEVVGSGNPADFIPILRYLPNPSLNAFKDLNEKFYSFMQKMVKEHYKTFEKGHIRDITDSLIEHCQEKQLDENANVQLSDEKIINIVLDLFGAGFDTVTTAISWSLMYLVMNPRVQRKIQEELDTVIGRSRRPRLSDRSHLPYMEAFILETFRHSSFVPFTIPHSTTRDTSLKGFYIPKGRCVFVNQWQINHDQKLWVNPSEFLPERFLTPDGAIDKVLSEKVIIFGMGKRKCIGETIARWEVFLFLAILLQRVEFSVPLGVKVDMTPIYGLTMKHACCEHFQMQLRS", "test": "Inhibition of recombinant human CYP1A1 incubated for 25 mins using 7-ethyl-O-resorufin substrate in presence of NADPH regenerating system by fluorescence based ethoxyresorufin-O-deethylase assay", "format": "ADME"}, "[2]": {"species": "Homo sapiens", "test": "Selectivity index, ratio of IC50 for inhibition of recombinant human CYP1A1 to IC50 for inhibition of recombinant human CYP1B1"}, "[3]": {"biological_target": "T2, CYP1A1 (Homo sapiens, UniProt P04798)", "T2 sequence (P04798 whole entry)": "T1 sequence (P04798 whole entry)", "test": "Inhibition of recombinant human CYP1A1 at 3 uM incubated for 25 mins using 7-ethyl-O-resorufin substrate in presence of NADPH regenerating system by fluorescence based ethoxyresorufin-O-deethylase assay", "format": "ADME", "settings": "recombinant human CYP1A1, probe 7-ethyl-O-resorufin (7-ethoxyresorufin)"}, "[4]": {"biological_target": "T3, CYP1B1 (Homo sapiens, UniProt Q16678)", "T3 sequence (Q16678 whole entry)": "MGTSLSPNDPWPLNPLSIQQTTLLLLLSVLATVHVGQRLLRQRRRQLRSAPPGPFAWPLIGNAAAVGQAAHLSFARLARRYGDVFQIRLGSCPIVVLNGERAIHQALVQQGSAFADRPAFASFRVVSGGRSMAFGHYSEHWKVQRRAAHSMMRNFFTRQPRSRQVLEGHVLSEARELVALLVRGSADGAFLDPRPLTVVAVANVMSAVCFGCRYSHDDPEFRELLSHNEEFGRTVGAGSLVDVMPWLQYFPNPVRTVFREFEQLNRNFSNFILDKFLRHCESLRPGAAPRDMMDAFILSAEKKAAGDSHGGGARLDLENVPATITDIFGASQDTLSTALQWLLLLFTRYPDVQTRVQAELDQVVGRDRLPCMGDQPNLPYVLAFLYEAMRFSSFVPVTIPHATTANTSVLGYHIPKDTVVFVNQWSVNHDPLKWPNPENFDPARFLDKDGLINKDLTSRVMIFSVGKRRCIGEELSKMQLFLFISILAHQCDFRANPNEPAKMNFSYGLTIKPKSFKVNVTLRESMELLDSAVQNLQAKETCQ", "test": "Inhibition of recombinant human CYP1B1 at 0.3 uM incubated for 45 mins using 7-ethyl-O-resorufin substrate in presence of NADPH regenerating system by fluorescence based ethoxyresorufin-O-deethylase assay", "settings": "recombinant human CYP1B1, probe 7-ethyl-O-resorufin (7-ethoxyresorufin)"}, "[5]": {"biological_target": "T3, CYP1B1", "test": "Inhibition of recombinant human CYP1B1 at 3 uM incubated for 45 mins using 7-ethyl-O-resorufin substrate in presence of NADPH regenerating system by fluorescence based ethoxyresorufin-O-deethylase assay", "settings": "recombinant human CYP1B1, probe 7-ethyl-O-resorufin (7-ethoxyresorufin)"}, "[6]": {"biological_target": "T2, CYP1A1", "test": "Inhibition of recombinant human CYP1A1 at 0.3 uM incubated for 25 mins using 7-ethyl-O-resorufin substrate in presence of NADPH regenerating system by fluorescence based ethoxyresorufin-O-deethylase assay", "format": "ADME", "settings": "recombinant human CYP1A1, probe 7-ethyl-O-resorufin (7-ethoxyresorufin)"}, "[7]": {"biological_target": "T4, Cytochrome P450 1B1 (Homo sapiens, UniProt Q16678)", "T4 sequence (Q16678 whole entry)": "T3 sequence (Q16678 whole entry)", "test": "Inhibition of recombinant human CYP1B1 incubated for 45 mins using 7-ethyl-O-resorufin substrate in presence of NADPH regenerating system by fluorescence based ethoxyresorufin-O-deethylase assay"}},
  "note": "pIC50: −log10 of the molar value.",
  "data": [
    {"smiles": "C[C@]12CC[C@@H]3c4cc(-c5ccc(F)cc5)c(O)cc4CC[C@H]3[C@@H]1CC[C@@H]2O", "values": [
      {"measurement": "pIC50", "setting": "[1]", "result": 5.31},
      {"measurement": "Ratio IC50", "setting": "[2]", "result": 20},
      {"measurement": "inhibition at 25 min, 3 µM", "setting": "[3]", "result": 0, "unit": "%"},
      {"measurement": "inhibition at 0.75 h, 0.3 µM", "setting": "[4]", "result": 91, "unit": "%"},
      {"measurement": "inhibition at 0.75 h, 3 µM", "setting": "[5]", "result": 103, "unit": "%"},
      {"measurement": "inhibition at 25 min, 0.3 µM", "setting": "[6]", "result": 3, "unit": "%"},
      {"measurement": "pIC50", "setting": "[7]", "result": 6.62}
    ]},
    {"smiles": "C#C[C@]1(O)CC[C@H]2[C@@H]3CCc4cc(O)c(-c5ccc(OC)cc5)cc4[C@H]3CC[C@@]21C", "values": [
      {"measurement": "pIC50", "setting": "[1]", "result": 5.04},
      {"measurement": "Ratio IC50", "setting": "[2]", "result": 25},
      {"measurement": "inhibition at 25 min, 3 µM", "setting": "[3]", "result": 23, "unit": "%"},
      {"measurement": "inhibition at 0.75 h, 0.3 µM", "setting": "[4]", "result": 58, "unit": "%"},
      {"measurement": "inhibition at 0.75 h, 3 µM", "setting": "[5]", "result": 94, "unit": "%"},
      {"measurement": "inhibition at 25 min, 0.3 µM", "setting": "[6]", "result": 7, "unit": "%"},
      {"measurement": "pIC50", "setting": "[7]", "result": 6.43}
    ]},
    {"smiles": "C[C@]12CC[C@@H]3c4cc(-c5ccncc5)c(O)cc4CC[C@H]3[C@@H]1CC[C@@H]2O", "values": [
      {"measurement": "pIC50", "setting": "[1]", "result": 5.41},
      {"measurement": "Ratio IC50", "setting": "[2]", "result": 16},
      {"measurement": "inhibition at 25 min, 3 µM", "setting": "[3]", "result": 14, "unit": "%"},
      {"measurement": "inhibition at 0.75 h, 3 µM", "setting": "[5]", "result": 102, "unit": "%"},
      {"measurement": "inhibition at 25 min, 0.3 µM", "setting": "[6]", "result": 5, "unit": "%"},
      {"measurement": "pIC50", "setting": "[7]", "result": 6.62}
    ]},
    {"smiles": "O=c1cc(-c2ccccc2)oc2c1ccc1ccccc12", "note": "[ALPHA-NAPHTHOFLAVONE]", "values": [
      {"measurement": "pIC50", "setting": "[1]", "result": 5.57},
      {"measurement": "inhibition at 25 min, 3 µM", "setting": "[3]", "result": 75, "unit": "%"},
      {"measurement": "inhibition at 0.75 h, 3 µM", "setting": "[5]", "result": 101, "unit": "%"},
      {"measurement": "inhibition at 25 min, 0.3 µM", "setting": "[6]", "result": 30, "unit": "%"}
    ]}
  ]
}
